Patent US20240025919A1, “AZA-TETRACYCLIC OXAZEPINE COMPOUNDS AND USES THEREOF” (Genentech, Inc., priority 2022, published 2024)

What was measured:
KRAS G12D = KRAS G12D (Homo sapiens (Human), UniProt P01116, G12D); assay: KRAS G12D LoEnz Biochemical Assay, BODIPY-GDP Exchange TR-FRET (SOS1-mediated nucleotide exchange); conditions: read-out: KRas (G12D) GDP HTRF IC50
KRAS WT = KRAS WT (Homo sapiens (Human), UniProt P01116); assay: KRAS WT Biochemical Assay, BODIPY-GDP Exchange TR-FRET (Example 502; 0.06 nM KRAS WT, 15 nM GDP, 300 nM SOS1, 120-minute incubation); conditions: read-out: KRas HTRF IC50
KRAS WT, sequence (P01116-2 other isoform, or with tags, fused parts or gaps): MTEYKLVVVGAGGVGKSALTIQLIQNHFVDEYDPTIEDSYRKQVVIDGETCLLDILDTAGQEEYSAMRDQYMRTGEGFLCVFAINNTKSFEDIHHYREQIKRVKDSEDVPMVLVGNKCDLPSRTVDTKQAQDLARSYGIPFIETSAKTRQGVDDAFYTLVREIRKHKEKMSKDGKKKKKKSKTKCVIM
Experimental: Example 502: KRAS WT Biochemical Assay, BODIPY-GDP Exchange TR-FRET. Biochemical compound potencies are assessed by evaluating inhibition of SOS1-mediated nucleotide exchange in KRAS WT. In this assay, the SOS1-promoted exchange of fluorescently-labeled GDP (BOPIDY-GDP) is monitored by time-resolved fluorescence resonance energy transfer (TR-FRET). Compounds solubilized in DMSO are dispensed as concentration series into 384-well white assay plates. A preformed complex of 0.06 nM biotin-tagged recombinant human KRAS WT, 15 nM GDP and 0.06 nM terbium-labeled streptavidin (CisBIO) prepared in 10 uL/well assay buffer (20 mM HEPES, pH 7.5, 50 mM NaCl, 10 mM MgCl2, 0.01% Tween-20 and 1 mM dithiothreitol) is added and allowed to incubate for 10-minutes at room temperature. The reaction is initiated with the addition of 5 uL 300 nM recombinant human SOS1 and 300 nM BODIPY-GDP in assay buffer. After a 120-minute incubation, the fluorescence is measured with excitation at 337 nm and emission at 490 and 520 nm. The TR-FRET ratio is determined as the fluorescence at 520 nm divided by the fluorescence at 490 nm multiplied by 10,000. The results are normalized to percent inhibition based on control samples: DMSO (0% inhibition) and control compound at a concentration that inhibits completely (100% inhibition). The normalized TR-FRET results are plotted against compound concentration, and the data are fit to a 4-parameter Hill equation to determine the IC50 values.

KRAS G12D, sequence (P01116-2 other isoform, or with tags, fused parts or gaps G12D): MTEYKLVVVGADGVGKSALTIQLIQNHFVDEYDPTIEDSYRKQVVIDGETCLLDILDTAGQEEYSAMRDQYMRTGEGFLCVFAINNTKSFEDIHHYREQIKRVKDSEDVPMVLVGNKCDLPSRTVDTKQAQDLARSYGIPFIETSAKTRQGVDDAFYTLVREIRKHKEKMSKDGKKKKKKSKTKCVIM

SMILES | IC50 (KRAS G12D) [nM] | IC50 (KRAS WT) [nM]
C[C@@H]1Oc2nc(-c3cc(N)ccc3C(F)(F)F)c(F)c3nc(OC[C@@]45CCCN4C[C@H](F)C5)nc(c23)N2C[C@H]3CC[C@H](N3)[C@@H]12 [Compound 72, 3-((5S,5aS,6S,9R)-1-Fluoro-12-(((2R,7aS)-2-fluorotetrahydro-1H-pyrrolizin-7a(5H)-yl)methoxy)-5-methyl-5a,6,7,8,9,10-hexahydro-5H-4-oxa-3,10a,11,13,14-pentaaza-6,9-methanonaphtho[1,8-ab]heptalen-2-yl)-4-(trifluoromethyl)aniline] | 0.28 | 12.9
Cc1c(F)c(N)cc(-c2nc3c4c(nc(OCC[C@@H]5CC[C@H]6COCCN56)nc4c2F)N2C[C@H]4CC[C@H](N4)[C@H]2[C@H](C)O3)c1C(F)(F)F [Compound 154, 2-Fluoro-5-((5S,5aS,6S,9R)-1-fluoro-12-(2-((6S,8aS)-hexahydro-1H-pyrrolo[2,1-c][1,4]oxazin-6-yl)ethoxy)-5-methyl-5a,6,7,8,9,10-hexahydro-5H-4-oxa-3,10a,11,13,14-pentaaza-6,9-methanonaphtho[1,8-ab]heptalen-2-yl)-3-methyl-4-(trifluoromethyl)aniline] | 0.47 | 118
Cc1cc2[nH]ncc2c(-c2nc3c4c(nc(OC[C@@]56CCCN5C[C@H](F)C6)nc4c2F)N2C[C@H]4CC[C@H](N4)[C@H]2[C@H](C)O3)c1Cl [Compound 176, (5S,5aS,6S,9R)-2-(5-Chloro-6-methyl-1H-indazol-4-yl)-1-fluoro-12-(((2R,7aS)-2-fluorotetrahydro-1H-pyrrolizin-7a(5H)-yl)methoxy)-5-methyl-5a,6,7,8,9,10-hexahydro-5H-4-oxa-3,10a,11,13,14-pentaaza-6,9-methanonaphtho[1,8-ab]heptalene] | 2.8 | 809
Cc1c(F)c(N)cc(-c2nc3c4c(nc(OC[C@H](F)CN5CC6(COC6)C5)nc4c2F)N2C[C@H]4CC[C@H](N4)[C@H]2[C@H](C)O3)c1C(F)(F)F [Compound 144] | 0.5 | 99.5
Cc1c(F)c(N)cc(-c2nc3c4c(nc(OC[C@@H]5CC(F)(F)CN5C)nc4c2F)N2C[C@H]4CC[C@H](N4)[C@H]2[C@H](C)O3)c1C(F)(F)F [Compound 65, 5-((5S,5aS,6S,9R)-12-(((S)-4,4-Difluoro-1-methylpyrrolidin-2-yl)methoxy)-1-fluoro-5-methyl-5a,6,7,8,9,10-hexahydro-5H-4-oxa-3,10a,11,13,14-pentaaza-6,9-methanonaphtho[1,8-ab]heptalen-2-yl)-2-fluoro-3-methyl-4-(trifluoromethyl)aniline] | 1.72 | 377
Cc1c(F)c(N)cc(-c2nc3c4c(nc(OC[C@@H]5CC[C@H]6C[C@@H](F)CN56)nc4c2F)N2C[C@H]4CC[C@H](N4)[C@H]2[C@H](C)O3)c1C(F)(F)F (single isomer, unassigned) [152 (isomer 1)] | 0.1 | 15.7
C[C@@H]1Oc2nc(-c3cccc4ccc(N)nc34)c(F)c3nc(OC[C@@]45CCCN4C[C@H](F)C5)nc(c23)N2C[C@H]3CC[C@H](N3)[C@@H]12 [Compound 114, 8-((5S,5aS,6S,9R)-1-Fluoro-12-(((2R,7aS)-2-fluorotetrahydro-1H-pyrrolizin-7a(5H)-yl)methoxy)-5-methyl-5a,6,7,8,9,10-hexahydro-5H-4-oxa-3,10a,11,13,14-pentaaza-6,9-methanonaphtho[1,8-ab]heptalen-2-yl)quinolin-2-amine] | 135 | 36700
Cc1c(F)c(N)cc(-c2nc3c4c(nc(OCCCN5C[C@@H]6C[C@H]5CO6)nc4c2F)N2C[C@H]4CC[C@H](N4)[C@H]2[C@H](C)O3)c1C(F)(F)F [Compound 164, 5-((5S,5aS,6S,9R)-12-(3-((1S,4S)-2-oxa-5-azabicyclo[2.2.1]heptan-5-yl)propoxy)-1-fluoro-5-methyl-5a,6,7,8,9,10-hexahydro-5H-4-oxa-3,10a,11,13,14-pentaaza-6,9-methanonaphtho[1,8-ab]heptalen-2-yl)-2-fluoro-3-methyl-4-(trifluoromethyl)aniline] | 0.15 | 30.6
Cc1c(F)c(N)cc(-c2nc3c4c(nc(OC[C@@]56CCCN5CCN(C)C6=O)nc4c2F)N2C[C@H]4CC[C@H](N4)[C@H]2[C@H](C)O3)c1C(F)(F)F (single isomer, unassigned) [137 (isomer 1)] | 2.31 | 283
Cc1c(F)c(N)cc(-c2nc3c4c(nc(OC[C@@H]5CCC6C=C(F)CCN65)nc4c2F)N2C[C@H]4CC[C@H](N4)[C@H]2[C@H](C)O3)c1C(F)(F)F (stereo partly drawn) [Compound 120, 2-fluoro-5-((5S,5aS,6S,9R)-1-fluoro-12-(((3S)-7-fluoro-1,2,3,5,6,8a-hexahydroindolizin-3-yl)methoxy)-5-methyl-5a,6,7,8,9,10-hexahydro-5H-4-oxa-3,10a,11,13,14-pentaaza-6,9-methanonaphtho[1,8-ab]heptalen-2-yl)-3-methyl-4-(trifluoromethyl)aniline] | 0.24 | 44.5
Cc1c(F)c(N)c(F)c(-c2nc3c4c(nc(OC[C@@H]5CC[C@H]6COCCN65)nc4c2F)N2C[C@H]4CC[C@H](N4)[C@H]2[C@H](C)O3)c1C(F)(F)F [Compound 96, 2,6-Difluoro-3-((5S,5aS,6S,9R)-1-fluoro-12-(((6S,8aS)-hexahydro-1H-pyrrolo[2,1-c][1,4]oxazin-6-yl)methoxy)-5-methyl-5a,6,7,8,9,10-hexahydro-5H-4-oxa-3,10a,11,13,14-pentaaza-6,9-methanonaphtho[1,8-ab]heptalen-2-yl)-5-methyl-4-(trifluoromethyl)aniline] | 0.433 | 75.8
Cc1c(F)c(N)cc(-c2nc3c4c(nc(OC[C@@H]5CC[C@H]6COCCN65)nc4c2F)N2C[C@H]4CC[C@H](N4)[C@H]2[C@H](C)O3)c1Cl [Compound 111, 4-Chloro-2-fluoro-5-((5S,5aS,6S,9R)-1-fluoro-12-(((6S,8aS)-hexahydro-1H-pyrrolo[2,1-c][1,4]oxazin-6-yl)methoxy)-5-methyl-5a,6,7,8,9,10-hexahydro-5H-4-oxa-3,10a,11,13,14-pentaaza-6,9-methanonaphtho[1,8-ab]heptalen-2-yl)-3-methylaniline] | 0.31 | 108
Cc1cc(N)c(Cl)c(-c2nc3c4c(nc(OC[C@@H]5CC[C@H]6COCCN65)nc4c2F)N2C[C@H]4CC[C@H](N4)[C@H]2[C@H](C)O3)c1C(F)(F)F [Compound 103, 2-Chloro-3-((5S,5aS,6S,9R)-1-fluoro-12-(((6S,8aS)-hexahydro-1H-pyrrolo[2,1-c][1,4]oxazin-6-yl)methoxy)-5-methyl-5a,6,7,8,9,10-hexahydro-5H-4-oxa-3,10a,11,13,14-pentaaza-6,9-methanonaphtho[1,8-ab]heptalen-2-yl)-5-methyl-4-(trifluoromethyl)aniline] | 0.86 | 224
C[C@@H]1Oc2nc(-c3cc(N)ccc3C(C)(C)C)c(F)c3nc(OC[C@@]45CCCN4C[C@H](F)C5)nc(c23)N2C[C@H]3CC[C@H](N3)[C@@H]12 [Compound 117, 4-(tert-butyl)-3-((5S,5aS,6S,9R)-1-fluoro-12-(((2R,7aS)-2-fluorotetrahydro-1H-pyrrolizin-7a(5H)-yl)methoxy)-5-methyl-5a,6,7,8,9,10-hexahydro-5H-4-oxa-3,10a,11,13,14-pentaaza-6,9-methanonaphtho[1,8-ab]heptalen-2-yl)aniline] | 4.84 | 638
Cc1c(F)c(N)c(F)c(-c2nc3c4c(nc(OC[C@@]56CCCN5C[C@H](F)C6)nc4c2F)N2C[C@H]4CC[C@H](N4)[C@H]2[C@H](C)O3)c1C(F)(F)F [Compound 91, 2,6-Difluoro-3-((5S,5aS,6S,9R)-1-fluoro-12-(((2R,7aS)-2-fluorotetrahydro-1H-pyrrolizin-7a(5H)-yl)methoxy)-5-methyl-5a,6,7,8,9,10-hexahydro-5H-4-oxa-3,10a,11,13,14-pentaaza-6,9-methanonaphtho[1,8-ab]heptalen-2-yl)-5-methyl-4-(trifluoromethyl)aniline] | 0.182 | 5.71
Cc1c(F)c(N)cc(-c2nc3c4c(nc(OC[C@@]5(CCF)CCCN5C)nc4c2F)N2C[C@H]4CC[C@H](N4)[C@H]2[C@H](C)O3)c1C(F)(F)F (single isomer, unassigned) [127 (isomer 1)] | 0.14 | 17.9
Cc1cc(N)c(F)c(-c2nc3c4c(nc(OC[C@@H]5CC[C@H]6COCCN65)nc4c2F)N2C[C@H]4CC[C@H](N4)[C@H]2[C@H](C)O3)c1C1CC1 [Compound 98, 4-Cyclopropyl-2-fluoro-3-((5S,5aS,6S,9R)-1-fluoro-12-(((6S,8aS)-hexahydro-1H-pyrrolo[2,1-c][1,4]oxazin-6-yl)methoxy)-5-methyl-5a,6,7,8,9,10-hexahydro-5H-4-oxa-3,10a,11,13,14-pentaaza-6,9-methanonaphtho[1,8-ab]heptalen-2-yl)-5-methylaniline] | 4.25 | 553
